# According to patent publication US10238670B2, “9-aminomethyl minocycline compounds and methods of use thereof in urinary tract infection (UTI) treatment” (Paratek Pharmaceuticals, Inc., priority 2016, dated 2019):
# How the values were obtained:
# baseline pathogen = assay: Phase 1b study, per-pathogen microbiological response at PTE (urine culture); type: in vivo, human
# Description: At screening and at all study visits (i.e., screening, daily while on treatment, and at EOT and PTE visits) a microbiologic evaluation of the infection under study was performed. A clean-catch midstream urine sample was collected and immediately sent to the local microbiology laboratory for microscopic examination and culture. Quantitative urine culture by appropriate methods was performed using a calibrated loop that would identify bacteria at a lower limit of 1×10^3 CFU/mL. In general, bacteria identified at 1×10^5 colony forming units (CFU)/mL or greater were considered a bacterial pathogen (probability of true pathogen was greater than probability of contamination). In addition, if the same bacteria was isolated in the blood and in the urine at any CFU count it was considered a pathogen. Culture results were to include identification of all pathogens to the level of genus and species. In vitro antimicrobial susceptibility testing of the isolates to antimicrobial drugs that may be used to treat UTIs was performed locally using a standard method chosen by the laboratory. The microbiological outcome was determined programmatically based on the local and Central Laboratory microbiological analyses. For an isolate to be considered a pathogen at screening, it must presented in the urine sample at ≥10^5 CFU/mL or the pathogen should be isolated from both the blood and urine at any CFU count. Microbiological outcome was defined as: • Eradication: […] The pathogens isolated at baseline were presented by genus and species by treatment group. The number and percentage of subjects with a by-subject and by-pathogen eradication, persistence and indeterminate microbiologic response were presented. A listing of all baseline and post-baseline isolates was provided.
# [1] = In vitro plasma protein binding (ultrafiltration), monkey plasma; type: in vitro ADME, monkey (Cynomolgus); conditions: 10-10,000 ng/mL, mean±SD, read-out: mean unbound protein fraction (fu) in plasma
# Description: (§1) For human binding studies, plasma was obtained from the blood of three healthy male volunteers. Plasma was defrosted from storage at -20° C. before use, and pools of human plasma were used for all studies. Plasma from mouse, rat, and monkey was supplied by Harlan Laboratories Ltd. (Netherlands), Milan […], Switzerland) and Centre de Primatologie ULP (France), respectively. Protein binding was measured using an ultrafiltration method. To asses the suitability of ultrafiltration, the recovery and free permeation of [^14C]-labelled Compound 1 in PBS buffer were investigated. […] Three 1 mL aliquots per concentration were introduced into […]® devices and spun for 1 min at 2000 g (filtrate ≤500 μL). Samples of the spiked solutions, the filtrate and retentate were quantified by LSC; volumes were determined by weighing. The free permeation of the test compound in PBS was evaluated as follows: Ratio=[Cuf/Cr] with Cuf being the concentration in the ultrafiltrate (ng/mL) and Cr the concentration in the retentate (ng/mL). […] Specifically, concentrations of Compound 1 was determined by an UPLC-MS/MS method. […] Standards and quality control samples were prepared on the day of analysis by adding a 20 μL aliquot of an appropriate standard or QC spiking solution in methanol. A 25 μL aliquot of the internal standard (at 200 ng/mL in methanol) was added to each well except blanks. […] Samples were processed using protein precipitation. A 0.5 mL aliquot of an acetonitrile/ethanol/acetic acid mixture (90:10:0.1, v:v:v) was added to each sample; samples were mixed using a vortex mixer for 10 minutes, and centrifuged 3800 rpm (approximately 2500×g) for 10 min at 10° C. […] The ions monitored for Compound 1 was the parent [M+H]^+ ion at m/z 557.3.0; the product ions at m/z 453.4. […] The quantification was performed using Analyst software and Watson LIMS version 7.2.0.01. Concentrations in QC and study samples were calculated from the resulting peak area ratios and interpolation from the regression equations of the respective calibration curves. The lower limit of quantitation was 5.0 ng/mL for Compound 1.
# plasma proteins = assay: as above; type: in vitro ADME, monkey (Cynomolgus); conditions: 10-10,000 ng/mL
# Description: as §1
# [2] = Enterococcus faecalis, IV_PO300
# [3] = Overall Gram Negative Pathogens, IV_PO300
# [4] = Overall Gram Negative Pathogens, PO300
# [5] = Overall Gram Negative Pathogens, PO450
# [6] = Overall Gram Positive Pathogens, IV_PO300
# [7] = Overall Gram Positive Pathogens, PO300
# [8] = Overall Gram Positive Pathogens, PO450
# [9] = Staphylococcus saprophyticus, PO450
# [10] = Streptococcus agalactiae - (Group B), PO300
structure (smiles),measurement,setting,value
"CN(C)c1cc(CNCC(C)(C)C)c(O)c2c1C[C@H]1C[C@H]3[C@H](N(C)C)C(O)=C(C(N)=O)C(=O)[C@@]3(O)C(O)=C1C2=O [Compound 1, 9-[(2,2-dimethyl-propylamino)-methyl]-minocycline]",Eradication,"baseline pathogen; Aerococcus urinae, PO450",1 (100.0) n (%)
same,Indeterminate,"baseline pathogen; Aerococcus urinae, PO450",0 (0.0) n (%)
same,Persistence,"baseline pathogen; Aerococcus urinae, PO450",0 (0.0) n (%)
same,Eradication,baseline pathogen; [2],1 (100.0) n (%)
same,Indeterminate,baseline pathogen; [2],0 (0.0) n (%)
same,Persistence,baseline pathogen; [2],0 (0.0) n (%)
same,Eradication,"baseline pathogen; Escherichia coli, IV_PO300",3 (100.0) n (%)
same,Indeterminate,"baseline pathogen; Escherichia coli, IV_PO300",0 (0.0) n (%)
same,Persistence,"baseline pathogen; Escherichia coli, IV_PO300",0 (0.0) n (%)
same,Eradication,"baseline pathogen; Escherichia coli, PO300",2 (66.7) n (%)
same,Indeterminate,"baseline pathogen; Escherichia coli, PO300",0 (0.0) n (%)
same,Persistence,"baseline pathogen; Escherichia coli, PO300",1 (33.3) n (%)
same,Eradication,"baseline pathogen; Escherichia coli, PO450",2 (50.0) n (%)
same,Indeterminate,"baseline pathogen; Escherichia coli, PO450",0 (0.0) n (%)
same,Persistence,"baseline pathogen; Escherichia coli, PO450",2 (50.0) n (%)
same,Eradication,"baseline pathogen; Klebsiella pneumoniae, PO300",1 (100.0) n (%)
same,Indeterminate,"baseline pathogen; Klebsiella pneumoniae, PO300",0 (0.0) n (%)
same,Persistence,"baseline pathogen; Klebsiella pneumoniae, PO300",0 (0.0) n (%)
same,Eradication,"baseline pathogen; Klebsiella pneumoniae, PO450",1 (50.0) n (%)
same,Indeterminate,"baseline pathogen; Klebsiella pneumoniae, PO450",0 (0.0) n (%)
same,Persistence,"baseline pathogen; Klebsiella pneumoniae, PO450",1 (50.0) n (%)
same,Eradication,baseline pathogen; [3],6 (100.0) n (%)
same,Indeterminate,baseline pathogen; [3],0 (0.0) n (%)
same,Persistence,baseline pathogen; [3],0 (0.0) n (%)
same,Eradication,baseline pathogen; [4],4 (100.0) n (%)
same,Indeterminate,baseline pathogen; [4],0 (0.0) n (%)
same,Persistence,baseline pathogen; [4],1 (25.0) n (%)
same,Eradication,baseline pathogen; [5],3 (50.0) n (%)
same,Indeterminate,baseline pathogen; [5],0 (0.0) n (%)
same,Persistence,baseline pathogen; [5],3 (50.0) n (%)
same,Eradication,baseline pathogen; [6],1 (100.0) n (%)
same,Indeterminate,baseline pathogen; [6],0 (0.0) n (%)
same,Persistence,baseline pathogen; [6],0 (0.0) n (%)
same,Eradication,baseline pathogen; [7],1 (100.0) n (%)
same,Indeterminate,baseline pathogen; [7],0 (0.0) n (%)
same,Persistence,baseline pathogen; [7],0 (0.0) n (%)
same,Eradication,baseline pathogen; [8],2 (100.0) n (%)
same,Indeterminate,baseline pathogen; [8],0 (0.0) n (%)
same,Persistence,baseline pathogen; [8],0 (0.0) n (%)
same,Eradication,"baseline pathogen; Proteus mirabilis, IV_PO300",3 (100.0) n (%)
same,Indeterminate,"baseline pathogen; Proteus mirabilis, IV_PO300",0 (0.0) n (%)
same,Persistence,"baseline pathogen; Proteus mirabilis, IV_PO300",0 (0.0) n (%)
same,Eradication,"baseline pathogen; Proteus mirabilis, PO300",1 (100.0) n (%)
same,Indeterminate,"baseline pathogen; Proteus mirabilis, PO300",0 (0.0) n (%)
same,Persistence,"baseline pathogen; Proteus mirabilis, PO300",0 (0.0) n (%)
same,Eradication,baseline pathogen; [9],1 (100.0) n (%)
same,Indeterminate,baseline pathogen; [9],0 (0.0) n (%)
same,Persistence,baseline pathogen; [9],0 (0.0) n (%)
same,Eradication,baseline pathogen; [10],1 (100.0) n (%)
same,Indeterminate,baseline pathogen; [10],0 (0.0) n (%)
same,Persistence,baseline pathogen; [10],0 (0.0) n (%)
same,fraction unbound,[1],0.788 ± 0.0726
same,Mean (SD) Bound Fraction,plasma proteins,21.2 (7.26) %
same,mean unbound protein fraction (fu) in plasma,plasma proteins; mean±SD,78.8±7.3%
